Measurements reported in the supplement of paper PMC4862054.

What was measured:
[1] = tested on: BT-474; test: normalised viability (% of control), CellTiter-Blue; higher = more viable cells (about 100 = DMSO control); conditions: 10 nM; incubation time: 72 h
Procedure: (§1)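 DSRT, CellTiter-Blue viability, 72 h incubation. Signal is normalised to DMSO and benzethonium chloride controls. Value is the normalised response at dose 3.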

[2] = tested on: BT-549; test: as above; conditions: 10 nM; incubation time: 72 h
Procedure: as §1

[3] = tested on: CAL-120; test: as above; conditions: 10 nM; incubation time: 72 h
Procedure: as §1

[4] = tested on: CAL-148; test: as above; conditions: 1 nM; incubation time: 72 h
Procedure: as §1

[5] = tested on: CAL-51; test: as above; conditions: 1 nM; incubation time: 72 h
Procedure: as §1

[6] = tested on: CAL-85-1; test: as above; conditions: 1 nM; incubation time: 72 h
Procedure: as §1

[7] = tested on: DU-4475; test: as above; conditions: 1 nM; incubation time: 72 h
Procedure: as §1

[8] = tested on: HCC1143; test: as above; conditions: 10 nM; incubation time: 72 h
Procedure: as §1

[9] = tested on: HCC1599; test: as above; conditions: 10 nM; incubation time: 72 h
Procedure: as §1

[10] = tested on: HCC1937; test: as above; conditions: 10 nM; incubation time: 72 h
Procedure: as §1

[11] = tested on: HDQ-P1; test: as above; conditions: 1 nM; incubation time: 72 h
Procedure: as §1

[12] = tested on: Hs578T; test: as above; conditions: 10 nM; incubation time: 72 h
Procedure: as §1

[13] = tested on: MDA-MB-231; test: as above; conditions: 10 nM; incubation time: 72 h
Procedure: as §1

[14] = tested on: MDA-MB-436; test: as above; conditions: 10 nM; incubation time: 72 h
Procedure: as §1

[15] = tested on: MDA-MB-453; test: as above; conditions: 1 nM; incubation time: 72 h
Procedure: as §1

[16] = tested on: MDA-MB-468; test: as above; conditions: 10 nM; incubation time: 72 h
Procedure: as §1

[17] = tested on: MFM-223; test: as above; conditions: 10 nM; incubation time: 72 h
Procedure: as §1

[18] = tested on: SK-BR-3; test: as above; conditions: 10 nM; incubation time: 72 h
Procedure: as §1

[19] = tested on: BT-474; test: normalised viability (% of control), CellTiter-Blue; higher = more viable cells (about 100 = DMSO control); conditions: incubation time: 72 h
Procedure, shortened: (§2)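 Breast cancer cell lines were treated for 72 h in 384-well format and measured by CellTiter-Blue fluorescence at 560/590 nm. Results were normalised per plate to vehicle (100) and a positive kill control (0). The entry is normalised viability at a single listed concentration of the series.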

[20] = tested on: DU-4475; test: as above; conditions: incubation time: 72 h
Procedure, shortened: as §2

[21] = tested on: HCC1143; test: as above; conditions: incubation time: 72 h
Procedure, shortened: as §2

[22] = tested on: HCC1599; test: as above; conditions: incubation time: 72 h
Procedure, shortened: as §2

[23] = tested on: HCC1937; test: as above; conditions: incubation time: 72 h
Procedure, shortened: as §2

[24] = tested on: Hs578T; test: as above; conditions: incubation time: 72 h
Procedure, shortened: as §2

[25] = tested on: MDA-MB-436; test: as above; conditions: incubation time: 72 h
Procedure, shortened: as §2

[26] = tested on: MDA-MB-453; test: as above; conditions: incubation time: 72 h
Procedure, shortened: as §2

[27] = tested on: MDA-MB-453; test: drug sensitivity score (DSS), CellTiter-Blue viability (DSS (AUC-based score)); higher = stronger viability inhibition; extreme values may be limits of the assay; conditions: incubation time: 72 h
Procedure: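 DSRT with the CellTiter-Blue (resazurin reduction) viability readout, fluorescence 560/590 nm, 72 h incubation. Plates were normalised to DMSO and benzethonium chloride controls. DSS is computed from the area under the fitted dose-response curve (5 or 9 concentrations).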

C/C(=C\c1csc(C)n1)[C@@H]1C[C@@H]2O[C@]2(C)CCC[C@H](C)[C@H](O)[C@@H](C)C(=O)C(C)(C)[C@@H](O)CC(=O)N1 [Ixabepilone]
Conditions | drug sensitivity score | normalised viability [%]
[1] | – | 96.6
[2] | – | 95.2
[3] | – | 76.4
[4] | – | 90.5
[5] | – | 104
[6] | – | 90.1
[7] | – | 94.3
[8] | – | 77
[9] | – | 94.9
[10] | – | 95.2
[11] | – | 82.7
[12] | – | 81.2
[13] | – | 98
[14] | – | 105
[15] | – | 89.6
[16] | – | 91.1
[17] | – | 73.3
[18] | – | 80.7
[27] | 3.24 | –

normalised viability [%]
Conditions | [19] | [20] | [21] | [22] | [23] | [24] | [25] | [26]
0.3 nM | – | 95.4 | – | – | – | – | – | 108
1 nM | 109 | – | 79.3 | 98.5 | 87.5 | 107 | 88.8 | –
3 nM | – | 77 | – | – | – | – | – | 87.4
10 nM | – | 92.4 | – | – | – | – | – | 87.3
100 nM | 115 | – | 80.7 | 87.6 | 89.1 | 98.8 | 90.1 | –
1000 nM | 26 | – | 25.6 | 81.2 | 17.2 | 25 | 51.7 | –
